Drawing on patent publication US9624205B2, “Substituted 6,5-fused bicyclic heteroaryl compounds” (Epizyme, Inc., priority 2013, dated 2017), this text covers IC50 for 5 compounds.

pIC50: −log10 of the molar value.

Experiment [1] deals with wild-type PRC2 enzyme (WT EZH2) (Homo sapiens (Human), UniProt Q15910). As to the kind of experiment: PRC2 enzyme assay on peptide substrate, wild-type EZH2. Conditions: wild-type PRC2, H3K27me0 peptide substrate. The class given is biochemical. The source says:
(§1) Protocol for Wild-Type and Mutant PRC2 Enzyme Assays
(§2) Peptides representative of human histone H3 residues 21-44 containing either an unmodified lysine 27 (H3K27me0) or dimethylated lysine 27 (H3K27me2) are synthesized with a C-terminal G(K-biotin) linker-affinity tag motif and a C-terminal amide cap by 21st Century Biochemicals. […] The sequences are listed below.
(§3) Human PRC2 enzymes are purified as 4-component enzyme complexes co-expressed in Spodoptera frugiperda (sf9) cells using a baculovirus expression system. […] The EED subunit contains an N-terminal FLAG tag that is used to purify the entire 4-component complex from sf9 cell lysates.
(§4) The assays are all performed in a buffer consisting of 20 mM bicine (pH=7.6), 0.5 mM DTT, 0.005% BSG and 0.002% Tween20, prepared on the day of use. Compounds in 100% DMSO (1 μL) are spotted into polypropylene 384-well V-bottom plates (Greiner) using a Platemate 2×3 outfitted with a 384-channel pipet head (Thermo). DMSO (1 μL) is added to columns 11, 12, 23, 24, rows A-H for the maximum signal control, and SAH, a known product and inhibitor of PRC2 (1 μL) is added to columns 11, 12, 23, 24, rows I-P for the minimum signal control. A cocktail (4 μL) containing the wild-type PRC2 enzyme and H3K27me0 peptide or any of the Y641 mutant enzymes and H3K27me2 peptide is added by Multidrop Combi (Thermo). The compounds are allowed to incubate with PRC2 for 30 min at 25° C., then a cocktail (10 μL) containing a mixture of non-radioactive and ^3H-SAM is added to initiate the reaction (final volume=[…]). In all cases, the final concentrations are as follows: wild-type or mutant PRC2 enzyme was 4 nM, SAH in the minimum signal control wells was 1 mM and the DMSO concentration was 1%. The assays are stopped by the addition of non-radioactive SAM (10 μL) to a final concentration of 600 μM, which dilutes the ^3H-SAM to a level where its incorporation into the peptide substrate is no longer detectable. 5 μL of the reaction in the 384-well polypropylene plate is then transferred to a 384-well Flashplate and the biotinylated peptides are allowed to bind to the streptavidin surface for at least 1 h before being washed three times with 0.1% Tween20 in a Biotek ELx405 plate washer. The plates are then read in a PerkinElmer TopCount platereader to measure the quantity of ^3H-labeled peptide bound to the Flashplate surface, measured as disintegrations per minute (dpm) or alternatively, referred to as counts per minute (cpm).
(§5) Where top and bottom are the normally allowed to float, but may be fixed at 100 or 0 respectively in a 3-parameter fit. The Hill Coefficient normally allowed to float but may also be fixed at 1 in a 3-parameter fit. Y is the % inhibition and X is the compound concentration.

Experiment [2] deals with Y641F mutant PRC2 enzyme (EZH2 Y641F) (Homo sapiens (Human), UniProt Q15910, Y641F). Description: PRC2 enzyme assay on peptide substrate, EZH2 Y641F mutant. It is filed as biochemical. Conditions: EZH2 Y641F PRC2, H3K27me2 peptide substrate.
Sequence of Y641F mutant PRC2 enzyme (EZH2 Y641F) (Q15910 whole entry Y641F): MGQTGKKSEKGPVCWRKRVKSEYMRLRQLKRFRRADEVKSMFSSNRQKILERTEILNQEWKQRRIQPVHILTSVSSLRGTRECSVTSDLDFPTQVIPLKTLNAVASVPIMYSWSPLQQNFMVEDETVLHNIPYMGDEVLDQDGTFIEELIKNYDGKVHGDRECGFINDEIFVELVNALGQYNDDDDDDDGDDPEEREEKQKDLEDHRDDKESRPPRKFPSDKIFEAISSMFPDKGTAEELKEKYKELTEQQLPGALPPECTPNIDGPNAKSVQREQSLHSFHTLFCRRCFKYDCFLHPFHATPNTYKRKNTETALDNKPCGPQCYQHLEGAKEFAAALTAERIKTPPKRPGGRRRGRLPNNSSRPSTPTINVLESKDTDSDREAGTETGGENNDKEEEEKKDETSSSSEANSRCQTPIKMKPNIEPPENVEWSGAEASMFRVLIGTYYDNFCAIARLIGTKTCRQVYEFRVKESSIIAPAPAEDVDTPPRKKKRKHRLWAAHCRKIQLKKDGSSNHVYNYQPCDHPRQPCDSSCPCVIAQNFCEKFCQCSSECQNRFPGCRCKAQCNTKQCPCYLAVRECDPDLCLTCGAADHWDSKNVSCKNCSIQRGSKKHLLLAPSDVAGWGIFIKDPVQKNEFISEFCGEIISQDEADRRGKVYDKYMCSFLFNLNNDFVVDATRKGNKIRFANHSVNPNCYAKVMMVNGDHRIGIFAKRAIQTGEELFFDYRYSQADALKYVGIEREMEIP
Sequence of Y641F mutant PRC2 enzyme (EZH2 Y641F) (O75530 whole entry partner): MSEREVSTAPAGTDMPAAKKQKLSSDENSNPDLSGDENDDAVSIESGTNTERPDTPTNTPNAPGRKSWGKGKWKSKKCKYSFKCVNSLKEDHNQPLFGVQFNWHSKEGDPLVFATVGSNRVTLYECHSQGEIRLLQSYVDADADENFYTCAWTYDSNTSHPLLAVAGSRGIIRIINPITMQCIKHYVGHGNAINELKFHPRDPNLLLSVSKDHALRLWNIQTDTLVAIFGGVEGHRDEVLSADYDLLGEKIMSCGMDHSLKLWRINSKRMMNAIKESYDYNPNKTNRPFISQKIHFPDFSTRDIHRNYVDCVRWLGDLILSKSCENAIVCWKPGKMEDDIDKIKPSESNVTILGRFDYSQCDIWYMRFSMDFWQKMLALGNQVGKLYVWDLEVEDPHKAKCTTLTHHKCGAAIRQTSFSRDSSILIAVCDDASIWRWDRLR
Sequence of Y641F mutant PRC2 enzyme (EZH2 Y641F) (Q15022 whole entry partner): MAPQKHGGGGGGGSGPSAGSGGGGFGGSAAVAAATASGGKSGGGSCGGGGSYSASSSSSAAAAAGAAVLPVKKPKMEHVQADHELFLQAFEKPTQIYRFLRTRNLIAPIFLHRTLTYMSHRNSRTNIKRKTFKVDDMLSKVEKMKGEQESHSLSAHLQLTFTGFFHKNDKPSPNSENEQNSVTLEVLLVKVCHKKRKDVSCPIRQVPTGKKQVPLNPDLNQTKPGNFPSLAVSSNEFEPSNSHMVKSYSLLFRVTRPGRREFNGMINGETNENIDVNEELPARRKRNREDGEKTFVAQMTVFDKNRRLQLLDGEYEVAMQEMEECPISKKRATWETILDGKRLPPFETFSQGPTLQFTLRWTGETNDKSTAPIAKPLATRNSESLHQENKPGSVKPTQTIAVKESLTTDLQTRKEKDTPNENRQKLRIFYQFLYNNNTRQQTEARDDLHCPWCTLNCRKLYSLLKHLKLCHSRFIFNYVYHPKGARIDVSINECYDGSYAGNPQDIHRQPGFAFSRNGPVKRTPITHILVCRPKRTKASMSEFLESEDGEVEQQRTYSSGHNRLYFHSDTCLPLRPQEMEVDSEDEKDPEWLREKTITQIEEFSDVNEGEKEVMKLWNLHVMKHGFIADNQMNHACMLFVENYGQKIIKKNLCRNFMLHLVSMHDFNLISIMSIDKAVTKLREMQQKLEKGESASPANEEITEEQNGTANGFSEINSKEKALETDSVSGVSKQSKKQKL
Sequence of Y641F mutant PRC2 enzyme (EZH2 Y641F) (Q09028 whole entry partner): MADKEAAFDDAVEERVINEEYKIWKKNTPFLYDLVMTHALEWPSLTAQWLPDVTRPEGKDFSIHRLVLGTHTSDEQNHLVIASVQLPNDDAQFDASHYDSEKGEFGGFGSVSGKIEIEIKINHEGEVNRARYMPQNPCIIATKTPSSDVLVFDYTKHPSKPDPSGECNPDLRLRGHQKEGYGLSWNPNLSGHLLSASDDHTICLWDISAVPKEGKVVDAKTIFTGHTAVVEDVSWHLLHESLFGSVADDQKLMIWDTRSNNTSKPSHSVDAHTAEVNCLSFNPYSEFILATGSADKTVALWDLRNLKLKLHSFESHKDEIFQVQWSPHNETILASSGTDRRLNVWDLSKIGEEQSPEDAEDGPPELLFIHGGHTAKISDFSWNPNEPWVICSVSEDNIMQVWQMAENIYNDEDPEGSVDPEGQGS
Description: as §1, §2, §3, §4, §5

Sequence of wild-type PRC2 enzyme (WT EZH2) (Q15910 whole entry): as the sequence (Q15910 whole entry Y641F) above, with F641Y counted along it
Sequence of wild-type PRC2 enzyme (WT EZH2) (O75530 whole entry partner): as the sequence (O75530 whole entry partner) above
Sequence of wild-type PRC2 enzyme (WT EZH2) (Q15022 whole entry partner): as the sequence (Q15022 whole entry partner) above
Sequence of wild-type PRC2 enzyme (WT EZH2) (Q09028 whole entry partner): as the sequence (Q09028 whole entry partner) above

Take `Cc1c(CNC(=O)c2c(C)n(C(C)C3CCOCC3)c3ccccc23)c(=O)[nH]n1C` (stereo not shown) [Compound 2, N-((1,5-dimethyl-3-oxo-2,3-dihydro-1H-pyrazol-4-yl)methyl)-2-methyl-1-(1-(tetrahydro-2H-pyran-4-yl)ethyl)-1H-indole-3-carboxamide]: the pIC50 in experiment [1] and in experiment [2] was below 4.30 in each case.
With `CCC(C)n1cc(C)c2c(C(=O)NCc3c(C)n(C)[nH]c3=O)cc(-c3ccc(N4CCNCC4)nc3)cc21` (stereo not shown) [Compound 4, 1-(sec-butyl)-N-((1,5-dimethyl-3-oxo-2,3-dihydro-1H-pyrazol-4-yl)methyl)-3-methyl-6-(6-(piperazin-1-yl)pyridin-3-yl)-1H-indole-4-carboxamide], the pIC50 in experiment [1] was 5.25; in experiment [2] it was 5.96.
Regarding `CCC(C)n1cc(C)c2c(C(=O)NCc3c(OC)nn(C)c3C)cc(-c3ccc(N4CCNCC4)nc3)cc21` (stereo not shown) [Compound 3, 1-(sec-butyl)-N-((3-methoxy-1,5-dimethyl-1H-pyrazol-4-yl)methyl)-3-methyl-6-(6-(piperazin-1-yl)pyridin-3-yl)-1H-indole-4-carboxamide], the results for the pIC50 in experiment [1] and in experiment [2] were 5.36 and 6.26, respectively.
The like results for `COc1nn(C)c(C)c1CNC(=O)c1c(C)n(C(C)C2CCOCC2)c2ccccc12` (stereo not shown) [Compound 1, N-((3-methoxy-1,5-dimethyl-1H-pyrazol-4-yl)methyl)-2-methyl-1-(1-(tetrahydro-2H-pyran-4-yl)ethyl)-1H-indole-3-carboxamide] were, in that order, below 4.30 and 4.55.
Take `CCC(C)n1cc(C)c2c(C(=O)NCc3c(OC)nn(CC)c3C)cc(-c3ccc(N4CCNCC4)nc3)cc21` (stereo not shown) [Compound 5, 1-(sec-butyl)-N-((1-ethyl-3-methoxy-5-methyl-1H-pyrazol-4-yl)methyl)-3-methyl-6-(6-(piperazin-1-yl)pyridin-3-yl)-1H-indole-4-carboxamide]: the negative-log IC50 (pIC50) in experiment [1] is 4.66; in experiment [2] it was 5.70.

What is called pIC50 is the negative decadic logarithm of the IC50, by convention in mol/L.
